Tested on: T1, β-glucosidase from almonds (β-Glu)
T1 construct: gene AH; free enzyme
Assay: p-nitrophenol release at […] nm, Lineweaver-Burk
Format: biochemical
Details: free enzyme; standard assay 0.1 M sodium acetate pH 6.0, 37 °C (pH and temperature of the kinetic runs not restated); apparent constant

Km: 2.6 mM
SMILES: O=[N+]([O-])c1ccc(O[C@@H]2O[C@H](CO)[C@@H](O)[C@H](O)[C@H]2O)cc1 [p-nitrophenyl-β-D-glucopyranoside]

Reference: PMC10674166, “Sustainable Immobilization of β-Glucosidase onto Silver Ions and AgNPs-Loaded Acrylic Fabric with Enhanced Stability and Reusability” (Polymers, 2023)
